# Where a SMILES comes first, the peptide text is derived from it. Bridges are numbered along the chain shown (N, C = ends). [ ]: non-standard residue; d: D form. The star is where a group is joined. Trp(1-CH2COOH) = N[C@@H](Cc1cn(CC(=O)O)c2ccccc12)C(=O)O; Hyp = O=C(O)[C@@H]1C[C@@H](O)CN1; X8 = Cn1cnc2c(Cl)nc3sc(*)nc3c21; X10 = c1ccc2c(c1)sc1ncnc(*)c12; X13 = Clc1ccc2oc3c(*)ncnc3c2c1; X5 = c1ccc2c(c1)oc1c(*)ncnc12; NMeNle = CCCC[C@H](NC)C(=O)O; X18 = c1ccc(-c2ccnc(*)n2)cc1; NMeA = CN[C@@H](C)C(=O)O; Dab = NCC[C@H](N)C(=O)O; Dap = NC[C@H](N)C(=O)O; X9 = Fc1cccc2sc(*)nc12
# Biological target: T1, PD-1/PD-L1 interaction (PD-1-Ig / PD-L1-His) (Homo sapiens, UniProt Q9NZQ7)
# T1 construct: TVMV protease site (linker) (C); made in house; host or cells: HEK293T cells
# T1 sequence (Q9NZQ7 18-239): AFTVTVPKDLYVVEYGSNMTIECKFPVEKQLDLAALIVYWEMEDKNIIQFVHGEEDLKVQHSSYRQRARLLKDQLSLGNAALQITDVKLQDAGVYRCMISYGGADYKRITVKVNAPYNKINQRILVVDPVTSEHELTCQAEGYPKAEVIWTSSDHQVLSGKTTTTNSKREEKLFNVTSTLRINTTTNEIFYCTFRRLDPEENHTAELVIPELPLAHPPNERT
# Experiment: PD-1/PD-L1 Homogenous Time-Resolved Fluorescence (HTRF) binding assay
# Settings: PD-L1-His 10 nM final, PD-1-Ig 20 nM final; inhibitors pre-incubated with PD-L1-His for 15 m
# Outline: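 Inhibitors pre-incubated 15 min with PD-L1-His (10 nM final) in dPBS, 0.1% BSA, 0.05% Tween-20, then 15 min with PD-1-Ig (20 nM final). Eu-cryptate anti-Ig (1 nM) and APC anti-His (20 nM) added, 30 min equilibration; HTRF 665/620 nm ratio. Human ECD proteins from HEK293T.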
row,Compound,IC50
1,CCCC[C@H]1C(=O)N(C)[C@@H](CCCC)C(=O)N[C@@H](CC(C)C)C(=O)N[C@H](C(=O)NCC(N)=O)CSCC(=O)N[C@@H](Cc2ccc(O)cc2)C(=O)N(C)[C@@H](C)C(=O)N[C@@H](CC(N)=O)C(=O)N2CCC[C@H]2C(=O)N[C@@H](CNc2ncnc3c2oc2ccccc23)C(=O)N[C@@H](CC(C)C)C(=O)N2C[C@H](O)C[C@H]2C(=O)N[C@@H](Cc2c[nH]c3ccccc23)C(=O)N[C@@H](CCN)C(=O)N[C@@H](Cc2cn(CC(=O)O)c3ccccc23)C(=O)N1C [Compound 21013] ({CH2CO}-Y[NMeA]NP[Dap](X5)L[Hyp]W[Dab][Trp(1-CH2COOH)][NMeNle][NMeNle]LCG-NH2; thioether N-14),3.4 nM
2,CCCC[C@H]1C(=O)N(C)[C@@H](CCCC)C(=O)N[C@@H](CC(C)C)C(=O)N[C@H](C(=O)NCC(N)=O)CSCC(=O)N[C@@H](Cc2ccc(O)cc2)C(=O)N(C)[C@@H](C)C(=O)N[C@@H](CC(N)=O)C(=O)N2CCC[C@H]2C(=O)N[C@@H](CNc2nc3c(nc(Cl)c4ncn(C)c43)s2)C(=O)N[C@@H](CC(C)C)C(=O)N2C[C@H](O)C[C@H]2C(=O)N[C@@H](Cc2c[nH]c3ccccc23)C(=O)N[C@@H](CCNc2nc3c(nc(Cl)c4ncn(C)c43)s2)C(=O)N[C@@H](Cc2cn(CC(=O)O)c3ccccc23)C(=O)N1C [Compound 21004] ({CH2CO}-Y[NMeA]NP[Dap](X8)L[Hyp]W[Dab](X8)[Trp(1-CH2COOH)][NMeNle][NMeNle]LCG-NH2; thioether N-14),5.7 nM
3,CCCC[C@H]1C(=O)N(C)[C@@H](CCCC)C(=O)N[C@@H](CC(C)C)C(=O)N[C@H](C(=O)NCC(N)=O)CSCC(=O)N[C@@H](Cc2ccc(O)cc2)C(=O)N(C)[C@@H](C)C(=O)N[C@@H](CC(N)=O)C(=O)N2CCC[C@H]2C(=O)N[C@@H](CNc2nccc(-c3ccccc3)n2)C(=O)N[C@@H](CC(C)C)C(=O)N2C[C@H](O)C[C@H]2C(=O)N[C@@H](Cc2c[nH]c3ccccc23)C(=O)N[C@@H](CCNc2nccc(-c3ccccc3)n2)C(=O)N[C@@H](Cc2cn(CC(=O)O)c3ccccc23)C(=O)N1C [Compound 1003] ({CH2CO}-Y[NMeA]NP[Dap](X18)L[Hyp]W[Dab](X18)[Trp(1-CH2COOH)][NMeNle][NMeNle]LCG-NH2; thioether N-14),8.3 nM
4,CCCC[C@H]1C(=O)N(C)[C@@H](CCCC)C(=O)N[C@@H](CC(C)C)C(=O)N[C@H](C(=O)NCC(N)=O)CSCC(=O)N[C@@H](Cc2ccc(O)cc2)C(=O)N(C)[C@@H](C)C(=O)N[C@@H](CC(N)=O)C(=O)N2CCC[C@H]2C(=O)N[C@@H](CNc2nc3c(F)cccc3s2)C(=O)N[C@@H](CC(C)C)C(=O)N2C[C@H](O)C[C@H]2C(=O)N[C@@H](Cc2c[nH]c3ccccc23)C(=O)N[C@@H](CCNc2nc3c(F)cccc3s2)C(=O)N[C@@H](Cc2cn(CC(=O)O)c3ccccc23)C(=O)N1C [Compound 11007] ({CH2CO}-Y[NMeA]NP[Dap](X9)L[Hyp]W[Dab](X9)[Trp(1-CH2COOH)][NMeNle][NMeNle]LCG-NH2; thioether N-14),4 nM
5,CCCC[C@H]1C(=O)N(C)[C@@H](CCCC)C(=O)N[C@@H](CC(C)C)C(=O)N[C@H](C(=O)NCC(N)=O)CSCC(=O)N[C@@H](Cc2ccc(O)cc2)C(=O)N(C)[C@@H](C)C(=O)N[C@@H](CC(N)=O)C(=O)N2CCC[C@H]2C(=O)N[C@@H](CNc2ncnc3c2oc2ccc(Cl)cc23)C(=O)N[C@@H](CC(C)C)C(=O)N2C[C@H](O)C[C@H]2C(=O)N[C@@H](Cc2c[nH]c3ccccc23)C(=O)N[C@@H](CCNc2ncnc3c2oc2ccc(Cl)cc23)C(=O)N[C@@H](Cc2cn(CC(=O)O)c3ccccc23)C(=O)N1C [Compound 21006] ({CH2CO}-Y[NMeA]NP[Dap](X13)L[Hyp]W[Dab](X13)[Trp(1-CH2COOH)][NMeNle][NMeNle]LCG-NH2; thioether N-14),12 nM
6,CCCC[C@H]1C(=O)N(C)[C@@H](CCCC)C(=O)N[C@@H](CC(C)C)C(=O)N[C@H](C(=O)NCC(N)=O)CSCC(=O)N[C@@H](Cc2ccc(O)cc2)C(=O)N(C)[C@@H](C)C(=O)N[C@@H](CC(N)=O)C(=O)N2CCC[C@H]2C(=O)N[C@@H](CNc2ncnc3sc4ccccc4c23)C(=O)N[C@@H](CC(C)C)C(=O)N2C[C@H](O)C[C@H]2C(=O)N[C@@H](Cc2c[nH]c3ccccc23)C(=O)N[C@@H](CCNc2ncnc3sc4ccccc4c23)C(=O)N[C@@H](Cc2cn(CC(=O)O)c3ccccc23)C(=O)N1C [Compound 21015] ({CH2CO}-Y[NMeA]NP[Dap](X10)L[Hyp]W[Dab](X10)[Trp(1-CH2COOH)][NMeNle][NMeNle]LCG-NH2; thioether N-14),18 nM

# From patent US20230022400A1, “IMMUNOMODULATORS” (Bristol-Myers Squibb Company, priority 2019, published 2023)
